Measurements taken from EP3529257B1, “[…] METHODS OF USE THEREOF” (Sage Therapeutics, Inc., priority 2016, dated 2018).

Assays:
[1] = target: T1, GlunN1/GluN2A glutamate receptors (Homo sapiens, UniProt Q05586+Q12879); test: Whole-cell patch clamp of mammalian cells (Ionworks Barracuda), positive allosteric modulation (PAM) of NMDA receptor, 2A; assay type: cell-based; conditions: for Emax: HEK293, HEK293 cells; for Emax / Avg Emax 2A (%): % activation of current elicited with EC20 L-glutamate and 30 µM glycine; for Avg Emax 2A (%) / EC50: HEK293 cells; for EC50: co-application with EC20 L-glutamate and 30 µM glycine, 8-point concentration-response
T1 construct: expressed in transfected cells
T1 sequence (Q12879 23-1464, other chains not shown): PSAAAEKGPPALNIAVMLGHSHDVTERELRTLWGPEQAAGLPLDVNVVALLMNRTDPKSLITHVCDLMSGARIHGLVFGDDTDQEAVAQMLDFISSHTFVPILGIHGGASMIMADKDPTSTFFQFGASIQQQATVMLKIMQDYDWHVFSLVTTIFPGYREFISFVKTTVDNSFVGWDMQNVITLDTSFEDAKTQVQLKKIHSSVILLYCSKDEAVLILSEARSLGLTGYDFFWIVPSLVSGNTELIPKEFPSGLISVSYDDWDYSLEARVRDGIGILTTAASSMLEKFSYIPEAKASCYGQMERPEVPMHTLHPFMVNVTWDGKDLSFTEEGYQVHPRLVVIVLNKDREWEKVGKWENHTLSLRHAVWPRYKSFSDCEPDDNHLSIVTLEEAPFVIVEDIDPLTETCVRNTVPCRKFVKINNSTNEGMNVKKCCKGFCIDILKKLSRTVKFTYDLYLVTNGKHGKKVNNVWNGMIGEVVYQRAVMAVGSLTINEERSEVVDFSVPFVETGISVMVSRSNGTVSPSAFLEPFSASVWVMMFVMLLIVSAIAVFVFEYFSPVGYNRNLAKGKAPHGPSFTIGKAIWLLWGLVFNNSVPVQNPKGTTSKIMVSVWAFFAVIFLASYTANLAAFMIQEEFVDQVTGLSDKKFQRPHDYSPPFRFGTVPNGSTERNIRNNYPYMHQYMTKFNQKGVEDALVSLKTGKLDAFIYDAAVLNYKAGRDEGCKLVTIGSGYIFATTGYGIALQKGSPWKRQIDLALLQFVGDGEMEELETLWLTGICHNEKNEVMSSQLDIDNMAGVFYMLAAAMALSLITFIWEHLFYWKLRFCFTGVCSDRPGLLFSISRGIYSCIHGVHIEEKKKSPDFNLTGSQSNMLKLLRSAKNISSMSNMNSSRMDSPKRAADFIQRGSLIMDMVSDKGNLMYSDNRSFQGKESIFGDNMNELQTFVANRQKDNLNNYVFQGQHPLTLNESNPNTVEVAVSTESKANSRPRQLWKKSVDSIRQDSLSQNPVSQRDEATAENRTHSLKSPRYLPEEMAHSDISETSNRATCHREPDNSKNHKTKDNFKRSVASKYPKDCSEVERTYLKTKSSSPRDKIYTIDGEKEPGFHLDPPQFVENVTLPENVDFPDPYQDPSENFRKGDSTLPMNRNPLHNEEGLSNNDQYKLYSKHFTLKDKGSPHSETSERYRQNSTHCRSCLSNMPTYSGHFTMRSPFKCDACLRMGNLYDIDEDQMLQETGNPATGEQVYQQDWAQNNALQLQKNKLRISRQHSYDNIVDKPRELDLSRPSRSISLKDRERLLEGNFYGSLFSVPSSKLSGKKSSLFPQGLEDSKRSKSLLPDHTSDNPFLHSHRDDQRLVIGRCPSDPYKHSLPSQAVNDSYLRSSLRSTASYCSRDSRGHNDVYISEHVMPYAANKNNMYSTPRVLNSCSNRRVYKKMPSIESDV
Description: (§1) The measurements were perfomed using Ion Works Barracuda platform following this procedure: • Electrophysiological Procedures: • a) Intracellular solution (mM): 50 mM CsCl, 90 mM CsF, 2 mM MgCl2, 5 mM EGTA, 10 mM HEPES. Adjust to pH 7.2 with CsOH. • b) Extracellular solution, HB-PS (composition in mM): NaCl, 137; KCl, 1.0; CaCl2, 5; HEPES, 10; Glucose, 10; pH adjusted to 7.4 with NaOH (refrigerated until use). • c) Holding potential: -70 mV, potential during agonist/PAM application: -40 mV. • Recording procedure: • a) Extracellular buffer will be loaded into the PPC plate wells (11 µL per well). Cell suspension will be pipetted into the wells (9 µL per well) of the PPC planar electrode. • b) Whole-cell recording configuration will be established via patch perforation with membrane currents recorded by on-board patch clamp amplifiers. • c) Two recordings (scans) will be performed. First, during pre-application of test article alone (duration of pre-application - 5 min) and second, during test articles and agonist (EC20 L-glutamate and 30 µM glycine) co-application to detect positive modulatory effects of the test article.
(§2) Test Article Administration: The first pre-application will consist of the addition of 20 µL of 2X concentrated test article solution and, second, of 20 µL of 1X concentrated test article and agonist at 10 µL/s (2 second total application time).
(§3) PAM concentration-response data will be fitted to an equation of the form: % Activation = % L−glutamate EC20 + {(%MAX−%L−glutamateEC20)/[1+(([Test]/; EC50))^N]}, [formula] where [Test] will be the concentration of PAM (test article), EC50 will be the concentration of PAM producing half-maximal activation, N will be the Hill coefficient, % L-glutamate EC20 will be the percentage of the current Elicited with L-glutamate EC20, % MAX is the percentage of the current activated with the highest dose of PAM co-admitted with L-glutamate EC20 and % Activation will be the percentage of the current elicited with L-glutamate EC10-30 at each PAM concentration.
(§4) The maximal amplitude of the evoked currents are measured and defined as Peak Current Amplitude (PCA).

[2] = target: T2, GluN2B glutamate receptors (Homo sapiens, UniProt Q05586+Q13224); test: Whole-cell patch clamp of mammalian cells (Ionworks Barracuda), positive allosteric modulation (PAM) of NMDA receptor, 2B; assay type: cell-based; conditions: for Emax / Avg Emax 2B (%): % activation of current elicited with EC20 L-glutamate and 30 µM glycine; for EC50: co-application with EC20 L-glutamate and 30 µM glycine, 8-point concentration-response
T2 construct: expressed in transfected cells; host or cells: mammalian cells (line not described for GluN2B)
T2 sequence (Q13224 27-1484, other chains not shown): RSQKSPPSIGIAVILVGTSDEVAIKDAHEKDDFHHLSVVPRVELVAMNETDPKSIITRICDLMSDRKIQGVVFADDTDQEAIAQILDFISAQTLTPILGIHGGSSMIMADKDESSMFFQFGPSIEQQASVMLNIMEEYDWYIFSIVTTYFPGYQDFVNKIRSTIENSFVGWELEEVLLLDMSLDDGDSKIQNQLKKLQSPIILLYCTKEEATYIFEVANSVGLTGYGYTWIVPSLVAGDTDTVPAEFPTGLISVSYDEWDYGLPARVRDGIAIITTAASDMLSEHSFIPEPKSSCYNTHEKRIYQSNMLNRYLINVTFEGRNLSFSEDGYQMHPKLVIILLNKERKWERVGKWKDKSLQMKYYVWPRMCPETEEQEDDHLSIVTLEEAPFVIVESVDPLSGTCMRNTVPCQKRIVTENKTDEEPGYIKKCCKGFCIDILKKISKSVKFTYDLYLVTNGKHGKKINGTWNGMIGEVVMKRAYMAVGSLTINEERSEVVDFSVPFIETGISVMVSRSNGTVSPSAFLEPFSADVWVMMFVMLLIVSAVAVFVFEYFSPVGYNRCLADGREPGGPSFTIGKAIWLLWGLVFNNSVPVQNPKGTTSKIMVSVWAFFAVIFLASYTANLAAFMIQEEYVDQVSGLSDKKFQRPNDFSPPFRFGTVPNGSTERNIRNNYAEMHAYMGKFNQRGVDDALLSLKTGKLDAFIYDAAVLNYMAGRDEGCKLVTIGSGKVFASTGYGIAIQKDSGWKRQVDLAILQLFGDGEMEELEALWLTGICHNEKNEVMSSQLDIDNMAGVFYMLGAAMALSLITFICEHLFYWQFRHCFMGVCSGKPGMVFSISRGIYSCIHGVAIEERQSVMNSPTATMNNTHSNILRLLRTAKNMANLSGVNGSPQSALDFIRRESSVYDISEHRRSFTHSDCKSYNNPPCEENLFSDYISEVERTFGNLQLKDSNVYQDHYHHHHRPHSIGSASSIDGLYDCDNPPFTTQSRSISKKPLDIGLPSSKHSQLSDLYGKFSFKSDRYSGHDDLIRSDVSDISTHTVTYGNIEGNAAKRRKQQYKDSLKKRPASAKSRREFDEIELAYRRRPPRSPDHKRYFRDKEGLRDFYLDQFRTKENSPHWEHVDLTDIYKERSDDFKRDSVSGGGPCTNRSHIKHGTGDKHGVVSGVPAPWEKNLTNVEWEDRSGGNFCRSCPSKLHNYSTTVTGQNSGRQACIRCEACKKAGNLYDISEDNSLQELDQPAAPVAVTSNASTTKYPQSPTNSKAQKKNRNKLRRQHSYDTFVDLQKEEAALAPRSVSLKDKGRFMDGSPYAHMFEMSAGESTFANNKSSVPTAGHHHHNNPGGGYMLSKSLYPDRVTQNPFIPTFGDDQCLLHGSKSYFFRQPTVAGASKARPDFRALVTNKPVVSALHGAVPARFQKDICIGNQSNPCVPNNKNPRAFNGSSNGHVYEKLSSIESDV
Description: as §1, §2, §3, §4

CC[C@]1(O)CC[C@H]2C(=CC[C@@H]3[C@@H]2CC[C@]2(C)[C@@H]([C@H](C)CCC4(O)CCOC4)CC[C@@H]32)C1 (stereo partly drawn) [Compound 8689]
Emax [1]: 320% | Emax [2]: 439%

C[C@H](CCC[C@H](O)C(F)(F)F)[C@H]1CC[C@H]2[C@@H]3CC[C@H]4C[C@](O)(C(F)(F)F)CC[C@]4(C)[C@H]3CC[C@]12C [Compound 11934]
Avg Emax 2A (%) [1]: 113.4% | EC50 [1]: 729 nM | Avg Emax 2B (%) [2]: 70.0% | EC50 [2]: 470 nM

CC[C@]1(O)CC[C@H]2C(=CC[C@@H]3[C@@H]2CC[C@]2(C)[C@@H]([C@H](C)CCC[C@@H](O)C(C)C)CC[C@@H]32)C1 [Compound 10114]
Avg Emax 2A (%) [1]: 146.3% | EC50 [1]: 321 nM | Avg Emax 2B (%) [2]: 179.1% | EC50 [2]: 506 nM

C[C@H](CCC1(O)CCC(F)(F)CC1)[C@H]1CC[C@H]2[C@@H]3CC=C4C[C@](O)(C(F)(F)F)CC[C@]4(C)[C@H]3CC[C@]12C [Compound 2392]
Emax [1]: 230% | Emax [2]: 166%

CC[C@]1(O)CC[C@@]2(C)C(=CC[C@H]3[C@@H]4CC[C@H]([C@H](C)CC[C@@H](O)c5ccccc5F)[C@@]4(C)CC[C@@H]32)C1 [Compound 7282]
Emax [1]: 208% | Emax [2]: 290%

C[C@H](CC[C@@H](O)C(F)(F)F)[C@H]1CC[C@H]2[C@@H]3CC=C4C[C@](O)(C(F)(F)F)CC[C@]4(C)[C@H]3CC[C@]12C [Compound 3149]
Emax [1]: 292% | Emax [2]: 472%

C[C@H](CCC(O)C(C)(C)C)[C@H]1CC[C@H]2[C@@H]3CC=C4C[C@](O)(C(F)(F)F)CC[C@]4(C)[C@H]3CC[C@]12C (stereo partly drawn) [Compound 2500]
Emax [1]: 303% | Emax [2]: 300%

C[C@H](CC[C@]1(O)CCOC1)[C@H]1CC[C@H]2[C@@H]3CC=C4C[C@](O)(C(F)(F)F)CC[C@]4(C)[C@H]3CC[C@]12C [Compound 3496]
Emax [1]: 319% | Emax [2]: 369%

CC[C@H](O)CCC[C@@H](C)[C@H]1CC[C@H]2[C@@H]3CC=C4C[C@](O)(CC)CC[C@@H]4[C@H]3CC[C@]12C [Compound 10949]
Avg Emax 2A (%) [1]: 97.4% | EC50 [1]: 66.4 nM | Avg Emax 2B (%) [2]: 147.4% | EC50 [2]: 138 nM

C[C@H](CCC[C@@H](O)C(C)(C)C)[C@H]1CC[C@H]2[C@@H]3CC[C@H]4C[C@](O)(C(F)(F)F)CC[C@]4(C)[C@H]3CC[C@]12C [Compound 12055]
Avg Emax 2A (%) [1]: 113.8% | EC50 [1]: 506 nM | Avg Emax 2B (%) [2]: 184.7% | EC50 [2]: 1130 nM

C[C@H](CC[C@H](O)C(C)(C)C)[C@H]1CC[C@H]2[C@@H]3CC[C@H]4C[C@](O)(C(F)(F)F)CC[C@]4(C)[C@H]3CC[C@]12C [Compound 2184]
Emax [1]: 234% | Emax [2]: 258%

CC(C)[C@@H](O)CC[C@@H](C)[C@H]1CC[C@H]2[C@@H]3CC=C4C[C@](O)(C(F)(F)F)CC[C@]4(C)[C@H]3CC[C@]12C [Compound 1-A]
Emax [1]: 275% | Emax [2]: 250%

C[C@H](CC[C@](C)(O)C(F)(F)F)[C@H]1CC[C@H]2[C@@H]3CC=C4C[C@@](C)(O)CC[C@@H]4[C@H]3CC[C@]12C [Compound 9062]
Avg Emax 2A (%) [1]: 66.5% | EC50 [1]: 34.5 nM | Avg Emax 2B (%) [2]: 52.2% | EC50 [2]: 179 nM
